Columns and labels:
[1] = test system: Tregs; test: immunophenotyping of lymphocytes in peripheral blood by flow cytometry, B16-F0 model; type: in vivo, mouse; conditions: ubenimex alone
Method: The blood collected by the autopsies after the confirmation of the antitumor effects was analyzed for lymphocytes in peripheral blood by flow cytometry.
The peripheral blood was subjected to hemolysis treatment with a Lysing Buffer to prepare peripheral blood mononuclear cells (PBMCs), the Fc receptors were then blocked with the anti-mouse CD16/32 antibody, and the cell surface markers CD45, CD3, CD4, CD8, and CD25 were stained. The PBMCs were fixed and permeabilized, and the nuclear factor FOXP3 was stained, and measurement was performed with the flow cytometer LSRII (Becton, Dickinson and Company).
Tregs identified using CD45+, CD3+, CD4+, CD25+, and FOXP3+ were used as indices for evaluation. The existence rate of Tregs in CD45-positive cells was calculated, and the number of Tregs per 1 μL of the peripheral blood was calculated from the value of the total white blood cell count.

[2] = test system: mouse melanoma cells B16-F0; test: antitumor effect in B16-F0 subcutaneous transplantation model; type: in vivo; conditions: 15 days after transplantation
Method: The antitumor effect of the combined administration of ubenimex and the anti-mouse PD-1 antibody was evaluated with a model in which the mouse melanoma cells B16-F0 were subcutaneously transplanted. Fluctuation in cytokines and immune system markers was confirmed at the same time.
First, 2×10^5 B16-F0 were subcutaneously transplanted to female C57BL/6N mice (Charles River Laboratories Japan, Inc.) to produce a subcutaneous transplantation model.
Ubenimex was orally administered to subcutaneous transplantation model B16-F0 mice once a day, 14 times in total, in a dosage of 5 or 50 mg/kg from the day following the transplantation to 14 days after transplantation. Furthermore, an anti-mouse PD-1 antibody was intraperitoneally administered in a dosage of 200 μg/body 4, 7, 11, and 14 days after the transplantation. […]
The major axis and the minor axis of the tumors were measured with a digital micrometer caliper (Mitutoyo Corporation), and the tumor volumes (mm 3) were calculated by the expression “major axis×minor axis^2/2”. The relative tumor volume (T/C) of each treated group to the control group was calculated by the expression “average tumor volume of the test substance-treated group/average tumor volume of control group×100” using the tumor volume value 15 days after the transplantation. […]

[3] = mouse blood concentration transition, single oral administration; type: in vivo; conditions: for AUC(0-inf) / Cmax / MRT inf / Tmax: fasted female C57BL/6N mice, plasma
Method: First, 9 nine-week-old fasted female C57BL/6N mice (Charles River Laboratories Japan, Inc.) in each group were subjected to the single oral administration of 5 mg/kg or 50 mg/kg of ubenimex. Blood collecting time points were 9 time points that were time points 5, 10, and 30 minutes, 1, 3, 6, 8, 12, and 24 hours after the administration. Then, 0.1 mL of blood was collected from the jugular vein under isoflurane anesthesia from 5 minutes to 6 hours after the administration, and the whole blood was collected from the vena cava under isoflurane anesthesia 8 hours or more after the administration. To secure n=3 at each time point, the blood collection was sparse blood collection in which blood was collected from one individual at 3 time points, and three animals were replaced as one set. Plasma was prepared from the obtained blood, and the plasma ubenimex concentration was measured with a liquid chromatography mass spectrometer (LC/MS/MS).

[4] = test system: mouse colon adenocarcinoma cells MC38; test: antitumor effect in MC38 subcutaneous transplantation model; type: in vivo; conditions: 25 days after transplantation
Method: The antitumor effect of the combined administration of ubenimex and the anti-mouse PD-1 antibody was evaluated with a subcutaneous transplantation model of the mouse colon adenocarcinoma cells MC38.
Then, 1×10^5 MC38 cells were subcutaneously transplanted into female C57BL/6N mice (Charles River Laboratories Japan, Inc.) to produce the subcutaneous transplantation model. Ubenimex was orally administered to each subcutaneous transplantation model mouse of MC38 in a dosage of 0.5 or 5 mg/kg once a day, 24 times in total, from the day following the transplantation to 24 days after the transplantation. Furthermore, the anti-mouse PD-1 antibody was intraperitoneally administered in a dosage of 50 μg/body 7, 11, 14, 18, 21, and 24 days after the transplantation. […]
The major axis and the minor axis of the tumors were measured with a digital micrometer caliper (Mitutoyo Corporation), and the tumor volumes (mm 3) were calculated by the expression “major axis×minor axis^2/2”. The relative tumor volume (T/C) of each treated group to the control group was calculated by the expression “average tumor volume of the test substance-treated group/average tumor volume of control group×100” using the tumor volume value 25 days after the transplantation. […]

[5] = ubenimex 5 mg/kg oral once daily

AUC(0-inf) ([3]; mouse, 5 mg/kg single oral): 3240 ng·h/mL
Cmax ([3]; mouse, 5 mg/kg single oral): 4600 ng/mL
MRT inf ([3]; mouse, 5 mg/kg single oral): 52.3 min
Tmax ([3]; mouse, 5 mg/kg single oral): 4.98 min
AUC(0-inf) ([3]; mouse, 50 mg/kg single oral): 47700 ng·h/mL
Cmax ([3]; mouse, 50 mg/kg single oral): 44000 ng/mL
MRT inf ([3]; mouse, 50 mg/kg single oral): 55.1 min
Tmax ([3]; mouse, 50 mg/kg single oral): 10.2 min
AUCinf, ratio of 50 mg/5 mg ([3]; single oral, mouse): 14.7 times
Cmax, ratio of 50 mg/5 mg ([3]; single oral, mouse): 9.57 times
MRTinf, ratio of 50 mg/5 mg ([3]; single oral, mouse): 1.05 times
Compound: CC(C)C[C@H](NC(=O)[C@@H](O)[C@H](N)Cc1ccccc1)C(=O)O [ubenimex, (2S)-2-[(2S,3R)-3-amino-2-hydroxy-4-phenylbutanoylamino]-4-methylpentanoic acid]
numbers of Tregs in the peripheral blood [1]: no change
relative average tumor volume (T/C) to the control group [2, 5]: did not exhibit tumor growth inhibition effect
relative average tumor volume (T/C) to the control group ([2]; ubenimex 50 mg/kg oral once daily): did not exhibit tumor growth inhibition effect
dosage proportionality ([3]; dosage of 5 to 50 mg/kg in the mouse): dosage proportionality was generally obtained
relative average tumor volume (T/C) to the control group ([4]; ubenimex 0.5 mg/kg oral once daily): 62%
relative average tumor volume (T/C) to the control group [4, 5]: 51%
